From patent US10323036B2 (Nimbus Lakshmi, Inc., priority 2016, dated 2019)
pIC50, pKd: −log10 of the molar value.

Key:
GM-CSF induced pSTAT5 = experiment: GM-CSF Induced pSTAT5 in Human PBMC; format: cell-based; details: 5 ng/mL GM-CSF, read-out: IC50 of inhibition of pSTAT5 production
Description: Cells are prepared for analysis as in the above procedure and 15 μl of GM-CSF (final concentration 5 ng/mL) is added for 20 minutes prior to pSTAT5 and total STAT5 analysis using cell lysates prepared and analyzed by MSD reagents as per manufacturer protocol. The final DMSO concentration of compound in the assay is 0.1%.

[1] = target: human TYK2 (JH2domain-pseudokinase) (Homo sapiens (Human), UniProt P29597); experiment: TYK2 JH2 Domain Binding Assay (KINOMEscan); details: Table 5, Tyk2 JH2 Domain Binding Assay; read-out: JH2 Kd
Chain of human TYK2 (JH2domain-pseudokinase) (P29597 556-888): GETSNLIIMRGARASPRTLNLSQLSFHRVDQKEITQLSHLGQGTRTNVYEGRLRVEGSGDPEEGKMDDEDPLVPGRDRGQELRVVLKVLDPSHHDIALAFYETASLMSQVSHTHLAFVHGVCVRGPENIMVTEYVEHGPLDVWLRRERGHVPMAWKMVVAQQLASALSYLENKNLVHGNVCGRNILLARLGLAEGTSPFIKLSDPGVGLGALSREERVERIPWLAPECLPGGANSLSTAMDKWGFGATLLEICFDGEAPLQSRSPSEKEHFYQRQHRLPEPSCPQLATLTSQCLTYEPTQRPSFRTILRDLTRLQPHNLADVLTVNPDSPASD

`COc1c(Nc2cc(NC(=O)C3CC3)ncc2-c2ncc(Cl)s2)cccc1-c1nnn(C)n1` [VIII-1, N-(5-(5-chlorothiazol-2-yl)-4-((2-methoxy-3-(2-methyl-2H-tetrazol-5-yl)phenyl)amino)pyridin-2-yl)cyclopropanecarboxamide] was tested. Which pIC50 (GM-CSF induced pSTAT5) did it give?
The pIC50 was less than 4.30.

What about the pKd [1] of the same compound?
Its pKd is 8.00 to 9.00.
